Results from PubChem BioAssay (NCI).
Values joined by “and” are separate entries in the source; they are usually repeats but may differ in a detail not shown here. Identical values can stand only once.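 Following 48 hours of exposure in 96-well plates, responses at five concentrations were used to interpolate endpoints linearly. GI50: concentration for 50% inhibition of growth. TGI denotes the concentration required for complete inhibition of growth.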

How the values were obtained:
Experiment in all cases: DTP human tumour cell line panel, 48 h
EKVX NSCLC = tested on: EKVX NSCLC
DU-145 prostate = tested on: DU-145 prostate
SK-MEL-5 melanoma = tested on: SK-MEL-5 melanoma
RPMI-8226 leukemia = tested on: RPMI-8226 leukemia
SF-295 CNS = tested on: SF-295 CNS
CAKI-1 renal = tested on: CAKI-1 renal
MCF7 breast = tested on: MCF7 breast
OVCAR-8 ovarian = tested on: OVCAR-8 ovarian
TK-10 renal = tested on: TK-10 renal
K-562 leukemia = tested on: K-562 leukemia

| SMILES | GI50 (EKVX NSCLC) | TGI (EKVX NSCLC) | GI50 (DU-145 prostate) [µM] | TGI (DU-145 prostate) [µM] | GI50 (SK-MEL-5 melanoma) [µM] | TGI (SK-MEL-5 melanoma) | GI50 (RPMI-8226 leukemia) [µM] | TGI (RPMI-8226 leukemia) | GI50 (SF-295 CNS) | TGI (SF-295 CNS) | GI50 (CAKI-1 renal) [µM] | TGI (CAKI-1 renal) | GI50 (MCF7 breast) [µM] | TGI (MCF7 breast) [µM] | GI50 (OVCAR-8 ovarian) [µM] | TGI (OVCAR-8 ovarian) [µM] | GI50 (TK-10 renal) | TGI (TK-10 renal) | GI50 (K-562 leukemia) [µM] | TGI (K-562 leukemia) |
| --- | --- | --- | --- | --- | --- | --- | --- | --- | --- | --- | --- | --- | --- | --- | --- | --- | --- | --- | --- | --- |
| CC12CCC3C(CC=C4CC(O)CCC43C)C1C/C(=C\N1CCCC1)C2=O (configuration not stated) | 46.6 µM | > 100 µM | > 100 | > 100 | 64.5 | > 100 µM | 37 | > 100 µM | 57.2 µM | > 100 µM | 61.2 | > 100 µM | > 100 | > 100 | > 100 | > 100 | > 100 µM | > 100 µM | 55.8 | > 100 µM |
| Oc1ccc(Cc2ccc(O)c3ncccc23)c2cccnc12 | 0.344 µM | > 100 µM | 0.0564 | > 100 | 0.12 | 0.609 µM | 0.0424 | 1.55 µM | 0.294 µM | 0.948 µM | 0.341 | > 100 µM | 0.0524 | > 100 | 0.0477 | > 100 | 0.238 µM | 0.996 µM | 0.0425 | > 100 µM |
| COc1ccccc1-[n+]1cc(-c2ccc(-c3ccccc3)cc2)n2c1CCCCC2 | 0.152 µM | 14.4 µM | 0.444 | 14.8 | 0.166 | 0.475 µM | – | 1.53 µM | 0.359 µM | 4.03 µM | 11.5 | 33.4 µM | 0.229 | 11.2 | 0.528 | 15.9 | 0.638 µM | 13 µM | 0.173 | 13.1 µM |
| COc1cc(Nc2nc3cc(N)cc(N)c3nc2-c2ccccc2)cc(OC)c1 | 13.3 µM | 64.4 µM | 22.7 | > 100 | 10.5 | 30 µM | 1.27 | 10.4 µM | 12.5 µM | 59.2 µM | 14.9 | 73 µM | 7.86 | 27.1 | 6.2 | 47 | 13.1 µM | 42.7 µM | 27.5 | > 100 µM |
| COc1c(O)c2c(c3cc(C(=O)N4CCc5c4c(O)c(OC)c4[nH]c(C(=O)N6CC7CC78C6=CC(=O)c6[nH]cc(C)c68)cc54)[nH]c13)CCN2C(N)=O (configuration not stated) | 6.94 ng/mL | > 100 µM and 0.0904 µg/mL | – | > 100 | – | 27.9 nM and 400 nM and 0.00964 µg/mL | – | 313 nM and 11.9 µM and 0.159 µg/mL | 1.74 ng/mL | 4.8 nM and 0.00618 µg/mL | – | 5.31 nM and > 100 µM and 0.00582 µg/mL | – | 0.397 | – | 0.00265 | 25.9 ng/mL | 222 nM and 0.0678 µg/mL | – | 21.8 µM and 0.0594 µg/mL |
| COP(=O)(OC)C(NC(c1ccccc1)c1ccccc1)c1ccc2c(c1)OCO2 (configuration not stated) | 31.4 µM | 92.6 µM | 26.6 | 60.5 | 16.9 | 30.5 µM | 14.1 | 32.3 µM | 29.5 µM | > 100 µM | 33.2 | 89 µM | 26 | 79 | 35.2 | > 100 | 44.5 µM | > 100 µM | 20.7 | 65 µM |
| Nc1ccc2c(SCCSc3c4ccccc4nc4cc(N)ccc34)c3ccccc3nc2c1 | – | > 100 µM | – | > 100 | – | > 100 µM | – | > 100 µM | – | > 100 µM | – | > 100 µM | – | > 100 | – | > 100 | – | > 100 µM | – | > 100 µM |
| c1ccc(Cc2nc3ccc(Nc4ncnc5ccccc45)cc3[nH]2)cc1 | 9.4 µM | > 25 µM | > 25 | > 25 | > 25 | > 25 µM | 16.8 | > 25 µM | > 25 µM | > 25 µM | 8.34 | > 25 µM | > 25 | > 25 | > 25 | > 25 | 5.85 µM | > 25 µM | > 25 | > 25 µM |
| COc1cc2oc(=O)ccc2cc1C1OC(=O)C2OC21C (configuration not stated) | – | > 100 µM | – | > 100 | – | > 100 µM | – | > 100 µM | – | > 100 µM | – | > 100 µM | – | > 100 | – | > 100 | – | > 100 µM | – | > 100 µM |
| CSc1nc2c(c(=O)[nH]1)N=C1c3ccccc3C(=O)C1C(c1ccc(F)cc1)N2 (configuration not stated) | 18.2 µM | > 100 µM | 16.2 | 42.2 | 6.13 | 66.6 µM | 4.2 | > 100 µM | 3.67 µM | 34.3 µM | 3.31 | 35.6 µM | 5.18 | 62.4 | 13.1 | 35.4 | 12.9 µM | 37.6 µM | 4.05 | > 100 µM |
| Cc1c(C#N)cccc1-c1cc(-c2cn(Cc3cccc(C(C)(C)O)n3)nn2)nc(N)n1 | 27.8 µM | > 100 µM | 37.1 | > 100 | 15 | 35.1 µM | 7.57 | 34.9 µM | 25.2 µM | > 100 µM | 10.4 | > 100 µM | 22.4 | > 100 | 24.2 | > 100 | 18.2 µM | > 100 µM | 13.4 | > 100 µM |
| O=C(O)C(=Cc1ccnc2ccccc12)C(=O)O | – | > 100 µM | – | > 100 | – | > 100 µM | – | > 100 µM | – | > 100 µM | – | > 100 µM | – | > 100 | – | > 100 | – | > 100 µM | – | > 100 µM |
| Cc1ccc2c(c1)nc(C(=O)c1ccco1)c(C(F)(F)F)[n+]2[O-] | 57.5 µM | > 100 µM | > 100 | > 100 | 1.6 | 2.94 µM | 64.6 | > 100 µM | 64 µM | > 100 µM | 77 | > 100 µM | > 100 | > 100 | > 100 | > 100 | > 100 µM | > 100 µM | 40.5 | > 100 µM |
